Among the test systems are UACC-257 melanoma; MDA-MB-231 breast; NCI-H23 lung; SK-MEL-28 melanoma; OVCAR-5 ovarian; T-47D breast; MCF7 breast; CAKI-1 renal; SF-539 CNS; SN12C renal.
Experiment in all cases: inhibition of tumour cell growth, NCI panel, 48 h

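Exposure lasted 48 hours, with cells grown in 96-well plates and compounds tested at five concentrations. GI50 = concentration required for 50% inhibition of growth. TGI: concentration producing complete growth inhibition.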

Regarding `C[C@H](N[C@H]1CCC[C@]1(O)C#Cc1ccc2c(c1)OCO2)c1ccccc1`, the TGI in the test on UACC-257 melanoma, in the test with MDA-MB-231 breast, in the test on NCI-H23 lung, with SK-MEL-28 melanoma, in the test on OVCAR-5 ovarian and in the test on T-47D breast was greater than 25 µM throughout. For the same compound, the TGI in the test with MCF7 breast and with CAKI-1 renal was greater than 25 µM in each case.
Consider `N#CCCOCN(CO)c1nc(N(CO)COCCC#N)nc(N(CO)COCCC#N)n1`, for which the TGI was 63.9 µM with UACC-257 melanoma; 8.63 µM in the test with SF-539 CNS; 71.5 µM in the test with NCI-H23 lung; 38.8 µM in the test on SK-MEL-28 melanoma; greater than 100 µM with OVCAR-5 ovarian; 44.2 µM in the test on SN12C renal.
For `COc1cc2c(cc1OC)C1Cc3cc(OC)c(OC)cc3C(C2)O1`, the TGI in the test with UACC-257 melanoma, in the test with MDA-MB-231 breast, in the test on SF-539 CNS, in the test on NCI-H23 lung, in the test with SK-MEL-28 melanoma and in the test on OVCAR-5 ovarian was greater than 100 µM throughout. In addition, the TGI in the test with T-47D breast, in the test with MCF7 breast, with CAKI-1 renal and in the test on SN12C renal was greater than 100 µM throughout.
For the compound `CCOC(=O)C(=O)Nc1c(CC)cccc1C(C)CC` (stereo unspecified), the TGI with UACC-257 melanoma, in the test with SF-539 CNS, in the test with NCI-H23 lung, in the test with SK-MEL-28 melanoma, in the test with OVCAR-5 ovarian and in the test on CAKI-1 renal was greater than 100 µM throughout. Also, in the test with SN12C renal, the TGI was greater than 100 µM.
`CCCC1=C(C(=O)OCC)C(c2ccccc2OC)C(C#N)=C(N)O1` (stereo unspecified): the GI50 with UACC-257 melanoma is 65.5 µM; in the test on MDA-MB-231 breast, 22.4 µM; with SF-539 CNS it was 39.8 µM; in the test on NCI-H23 lung, greater than 100 µM; in the test on SK-MEL-28 melanoma it was 26.3 µM; with OVCAR-5 ovarian, greater than 100 µM. Besides, the GI50 in the test with T-47D breast was 43.4 µM; with MCF7 breast it was 28.4 µM; in the test on CAKI-1 renal it was 57.5 µM; in the test on SN12C renal, 16.6 µM. Besides, the TGI in the test with UACC-257 melanoma is greater than 100 µM; in the test with MDA-MB-231 breast it was 57.6 µM; with SF-539 CNS, greater than 100 µM; in the test with NCI-H23 lung, greater than 100 µM; in the test with SK-MEL-28 melanoma, 79.4 µM; in the test on OVCAR-5 ovarian it was greater than 100 µM. The TGI in the test with T-47D breast is greater than 100 µM; in the test with MCF7 breast, greater than 100 µM; in the test with CAKI-1 renal, greater than 100 µM; with SN12C renal it was 41.4 µM.
`Cc1c2cc[n+](C)cc2c(C)c2c1[nH]c1ccc(Cl)cc12`: the TGI in the test on UACC-257 melanoma is 62.3 µM; in the test on MDA-MB-231 breast it was greater than 47.5 µM; in the test with SF-539 CNS it was 2.32 µM; with NCI-H23 lung it was 9.12 µM; in the test with SK-MEL-28 melanoma it was 16.5 µM; in the test on OVCAR-5 ovarian, 84.4 µM. For the same compound, the TGI in the test with T-47D breast amounted to 14.8 µM; in the test with MCF7 breast, 15.9 µM; in the test on CAKI-1 renal, 53.4 µM; in the test on SN12C renal it was 3.42 µM.
On to `Nc1cccc2c1C1=NNC(=O)CC1C2` (stereo unspecified), for which the TGI in the test with UACC-257 melanoma was greater than 100 µM; with SF-539 CNS, greater than 100 µM; in the test on NCI-H23 lung, greater than 20.3 µM; in the test with SK-MEL-28 melanoma, greater than 100 µM; in the test on OVCAR-5 ovarian it was greater than 100 µM; in the test with MCF7 breast, greater than 100 µM. In addition, the TGI in the test with CAKI-1 renal and with SN12C renal was greater than 100 µM each time.
For `O=C(NCCNc1nccc(-c2c(-c3cccc(O)c3)nc3sccn23)n1)Nc1cccc(C(F)(F)F)c1`, the GI50 in the test on UACC-257 melanoma is 2.51 µM; with MDA-MB-231 breast it was 3.52 µM; in the test on SF-539 CNS, 13.1 µM; in the test with NCI-H23 lung, 4.62 µM; in the test with SK-MEL-28 melanoma, 2.68 µM; in the test with OVCAR-5 ovarian it was 16.3 µM. Moreover, the GI50 was 6.52 µM in the test on T-47D breast, 3.57 µM with MCF7 breast, 14.2 µM in the test on CAKI-1 renal and 3.42 µM with SN12C renal. The TGI in the test on UACC-257 melanoma was 6.94 µM; in the test with MDA-MB-231 breast, 12.3 µM; in the test with SF-539 CNS it was 36.9 µM; in the test with NCI-H23 lung, 32.5 µM; in the test with OVCAR-5 ovarian it was 65.3 µM; with T-47D breast, 25.6 µM. Further, the TGI is 16 µM in the test with MCF7 breast, 50.5 µM in the test on CAKI-1 renal and 20 µM in the test on SN12C renal.
For the compound `COc1cc(NC(=O)CSc2nc3ccccc3c(=O)n2CCc2ccccc2)cc(OC)c1OC`, in the test on MDA-MB-231 breast, the GI50 was 1.47 µM and the TGI is 3.71 µM. Besides, in the test on MCF7 breast, the GI50 was 4.44 µM and the TGI is greater than 100 µM.
`O=C(Nc1cccc([N+](=O)[O-])c1)C(=O)C(C(=O)c1ccccc1F)C1OC(=O)C2C=CC=CC21` (stereo unspecified): the TGI in the test on UACC-257 melanoma was greater than 100 µM; with SF-539 CNS, 67.5 µM; in the test on NCI-H23 lung it was greater than 100 µM; in the test on SK-MEL-28 melanoma, greater than 100 µM; in the test on OVCAR-5 ovarian, greater than 100 µM; in the test on CAKI-1 renal it was greater than 100 µM. The same compound yielded a TGI in the test on SN12C renal greater than 100 µM.
For `c1ccc(CCN2CCOCC2)nc1`, the TGI with UACC-257 melanoma, with MDA-MB-231 breast, with NCI-H23 lung, in the test on SK-MEL-28 melanoma, with OVCAR-5 ovarian and with T-47D breast was greater than 100 µM throughout. The TGI in the test on MCF7 breast, in the test with CAKI-1 renal and in the test with SN12C renal was greater than 100 µM in each case.
As to `NC(=O)Nc1ccc(C(=O)NCCCNC(=O)c2ccc(NC(N)=O)cc2)cc1`, the TGI in the test on UACC-257 melanoma, in the test with SF-539 CNS, in the test with NCI-H23 lung, in the test with SK-MEL-28 melanoma, with OVCAR-5 ovarian and in the test with T-47D breast was greater than 100 µM throughout. Further, the TGI in the test with MCF7 breast and in the test with CAKI-1 renal was greater than 100 µM in each case.

Values taken from PubChem BioAssay (NCI).
